Test results published in ChEMBL document CHEMBL1201862, “PubChem BioAssay data set” (2004).
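A five-concentration, 48-hour dose response in 96-well plates underlies each endpoint, interpolated linearly between surrounding concentrations. Abbreviation: GI50, concentration required for 50% inhibition of growth.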 The source made the active and inactive calls. Rule as the data show it: active = GI50 up to about 1.1 µM and inactive = higher.

Tests used:
Assay in all cases: NCI anticancer screen, dose series, 48 h
[1] = system: COLO 205
[2] = system: HCC 2998
[3] = system: IGROV-1
[4] = system: SF-295
[5] = system: 786-0
[6] = system: UO-31
[7] = system: K562
[8] = system: SN12C
[9] = system: KM12
[10] = system: OVCAR-4
[11] = system: SF-268
[12] = system: CAKI-1
[13] = system: M14
[14] = system: HCT-15
[15] = system: U-251
[16] = system: NCI-H226
[17] = system: SNB-19

| Structure (SMILES) | GI50 [1] | GI50 [2] | GI50 [3] | GI50 [4] | GI50 [5] | GI50 [6] | GI50 [7] | GI50 [8] | GI50 [9] | GI50 [10] | GI50 [11] | GI50 [12] | GI50 [13] | GI50 [14] [µM] | GI50 [15] | GI50 [16] | GI50 [17] |
| --- | --- | --- | --- | --- | --- | --- | --- | --- | --- | --- | --- | --- | --- | --- | --- | --- | --- |
| O=C(NC(=S)Nc1ccccc1)c1ccc([N+](=O)[O-])cc1 | 47.3 µM (inactive) | > 100 µM (inactive) | 71.9 µM (inactive) | 45.1 µM (inactive) | > 100 µM (inactive) | 45.8 µM (inactive) | 52 µM (inactive) | > 100 µM (inactive) | 3.46 µM (inactive) | 3.4 µM (inactive) | > 100 µM (inactive) | 73.8 µM (inactive) | > 100 µM (inactive) | 38.5 |  |  |  |
| Cc1c(C(=O)C/C(=N\O)C(=O)Nc2cc(Cl)c(Cl)cc2Cl)[n+]([O-])c2ccccc2[n+]1[O-] | 2.92 µM (inactive) | 7.06 µM (inactive) | 3.71 µM (inactive) | 25.9 µM (inactive) | 22.2 µM (inactive) | 24.3 µM (inactive) | 25.9 µM (inactive) | 4.83 µM (inactive) | 11.1 µM (inactive) | 9.53 µM (inactive) | 17.8 µM (inactive) | 34 µM (inactive) | 4.5 µM (inactive) | 8.17 | 11 µM (inactive) | 17 µM (inactive) | 36.1 µM (inactive) |
| COc1cc(C(C)c2cc3c(cc2OCCN)OCO3)cc(OC)c1OC (stereo not given) | > 100 µM (inactive) | > 100 µM (inactive) | > 100 µM (inactive) | > 100 µM (inactive) | > 100 µM (inactive) | 50.8 µM (inactive) | > 100 µM (inactive) | > 100 µM (inactive) | 28.4 µM (inactive) | > 100 µM (inactive) | 73.8 µM (inactive) | > 100 µM (inactive) | > 100 µM (inactive) | > 100 | 42.5 µM (inactive) | 32.1 µM (inactive) | 54.8 µM (inactive) |
| COc1ccc(N2C(=O)C3c4[nH]c5ccc(OC)cc5c4C4CCC(C(C)(C)C)CC4C3C2=O)cc1 (stereo not given) | 12.3 µM (inactive) | 45.3 µM (inactive) | 51.2 µM (inactive) | 9.51 µM (inactive) | 16.8 µM (inactive) | > 100 µM (inactive) | 23.1 µM (inactive) | 38.2 µM (inactive) | 34.3 µM (inactive) | 4.71 µM (inactive) | 14.3 µM (inactive) | 42.6 µM (inactive) | 19.9 µM (inactive) | > 100 | 17.5 µM (inactive) | 30.5 µM (inactive) | 46.3 µM (inactive) |
| CN(CCc1ccccn1)c1nc(=[N+](C)C)ss1 | > 100 µM (inactive) | > 100 µM (inactive) | > 100 µM (inactive) | 56.1 µM (inactive) | > 100 µM (inactive) | > 100 µM (inactive) | > 100 µM (inactive) | > 100 µM (inactive) | 28.1 µM (inactive) | > 100 µM (inactive) | > 100 µM (inactive) | > 100 µM (inactive) | > 100 µM (inactive) | > 100 | > 100 µM (inactive) |  | > 100 µM (inactive) |
| Cc1nnc2n1N=C(CC(=O)c1ccc(O)cc1O)CN2N | 19.2 µM (inactive) | > 100 µM (inactive) | > 100 µM (inactive) | > 100 µM (inactive) | > 100 µM (inactive) | > 100 µM (inactive) | > 100 µM (inactive) | > 100 µM (inactive) | > 100 µM (inactive) | > 100 µM (inactive) | > 100 µM (inactive) | > 100 µM (inactive) | > 100 µM (inactive) | 15.5 | > 100 µM (inactive) |  | > 100 µM (inactive) |
| O=C(O)C1CCC(=O)N1C(=O)C(Cl)c1ccccc1 (stereo not given) | > 100 µM (inactive) | > 100 µM (inactive) | > 100 µM (inactive) | > 100 µM (inactive) | > 100 µM (inactive) | > 100 µM (inactive) | > 100 µM (inactive) | > 100 µM (inactive) | > 100 µM (inactive) | > 100 µM (inactive) | > 100 µM (inactive) | > 100 µM (inactive) | > 100 µM (inactive) | > 100 | > 100 µM (inactive) | > 100 µM (inactive) | > 100 µM (inactive) |
| Cn1c(C2CCCc3c2c2ccccc2n3C)cc2ccccc21 (stereo not given) | 140 µM (inactive) | 186 µM (inactive) | 31.6 µM (inactive) | 70 µM (inactive) | > 318 µM (inactive) |  | 74 µM (inactive) | 222 µM (inactive) | 30.6 µM (inactive) |  | 110 µM (inactive) | 115 µM (inactive) |  | 43.1 | 174 µM (inactive) | 216 µM (inactive) | > 318 µM (inactive) |
| CCCCCCCCCCCC(=O)CC(=O)c1c(O)cccc1O | 17.3 µM (inactive) | 29 µM (inactive) | 18.6 µM (inactive) | 19.4 µM (inactive) | 23.3 µM (inactive) | 14.5 µM (inactive) | 26.9 µM (inactive) | 18.7 µM (inactive) | 17.5 µM (inactive) | 17.3 µM (inactive) | 16.4 µM (inactive) | > 10 µM (inactive) | 18 µM (inactive) | 22.6 | 17.7 µM (inactive) | 16.7 µM (inactive) | 20 µM (inactive) |
